Counter-ions that a name gives are not always drawn.
System: mongolian gerbils
Assay: gerbil social interaction model (time spent in active social interactions)
Assay type: in vivo
Details: one hour after administration
Procedure: Paroxetine hydrochloride hemihydrate (0.3 mg/kg p.o of the paroxetine measured as the free base.), 2-(S)-(4-Fluoro-2-methyl-phenyl)-piperazine-1-carboxylic acid [1-(R)-(3,5-bis-trifluoromethyl-phenyl)-ethyl]-methyl-amide methansulphonate (hereinafter compound A) (0.1 mg/kg i.p of the compound A measured as the free base) and a combination of paroxetine (0.3 mg/kg p.o. of the paroxetine measured as the free base) and compound A (0.1 mg/kg i.p. of the compound A measured as the free base) were administered independently in mongolian gerbils to assess the effect on time spent in active social interactions.
The results obtained one hour after administration, expressed as a percentage variation of the time spent in active social interactions by each animal in respect to the value obtained by treatment of control animals, are summarised in table 1.

Row | SMILES | % variation of the time spent in active social interactions in respect to control animals (0.1 mg/kg i.p. (measured as the free base)) [%] | % variation of the time spent in active social interactions in respect to control animals (0.3 mg/kg p.o. (measured as the free base)) [%]
1 | CS(=O)(=O)O.Cc1cc(F)ccc1[C@H]1CNCCN1C(=O)N(C)[C@H](C)c1cc(C(F)(F)F)cc(C(F)(F)F)c1 [Compound A, 2-(S)-(4-Fluoro-2-methyl-phenyl)-piperazine-1-carboxylic acid [1-(R)-(3,5-bis-trifluoromethyl-phenyl)-ethyl]-methyl-amide methansulphonate] | −8 | 
2 | Fc1ccc([C@@H]2CCNC[C@H]2COc2ccc3c(c2)OCO3)cc1 [Paroxetine hydrochloride hemihydrate, (−) trans-4-(4′-fluorophenyl)3-(3′-4′-methylenedioxyphenoxymethyl)piperidine] |  | −2

Source: patent US20060241124A1, “Combinations comprising paroxetine and 2- (s) - (4-fluoro-2-methyl-phenyl) -piperazine-1-carboxylic acid [1- (r)- (3,5-bis-trifluoro-2-methyl-phenyl) -ethyl]-methyl amide for treatment of depression and/or anxiety” (priority 2003, published 2006)
